These results are taken from patent EP4667458A1 (Kanaph Therapeutics Inc., priority 2023, dated 2024).

pIC50: −log10 of the molar value.

The target of this assay is T1, SOS1 (Homo sapiens, UniProt Q07889).
T1 construct: adding equal amounts of HIS-SOS1cat (160 nM; Cytoskeleton, US); His; purchased Cytoskeleton, US
T1 sequence (Q07889 564-1049 limits assumed): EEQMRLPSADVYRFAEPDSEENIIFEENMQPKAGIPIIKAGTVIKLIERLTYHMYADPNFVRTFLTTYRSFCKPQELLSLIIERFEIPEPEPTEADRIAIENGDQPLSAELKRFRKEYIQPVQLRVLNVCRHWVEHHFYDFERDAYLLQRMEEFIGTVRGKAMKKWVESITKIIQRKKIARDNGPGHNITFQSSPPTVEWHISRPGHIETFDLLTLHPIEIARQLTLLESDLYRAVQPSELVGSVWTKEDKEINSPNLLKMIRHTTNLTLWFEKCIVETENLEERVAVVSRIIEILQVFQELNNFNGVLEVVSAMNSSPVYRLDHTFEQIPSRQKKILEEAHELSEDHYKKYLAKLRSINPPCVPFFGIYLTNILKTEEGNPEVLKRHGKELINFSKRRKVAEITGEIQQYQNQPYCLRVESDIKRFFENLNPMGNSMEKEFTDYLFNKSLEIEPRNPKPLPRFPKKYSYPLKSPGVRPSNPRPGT
The assay can be described thus: SOS-catalyzed nucleotide exchange assay (HTRF, SOS1-mediated GTP loading of KRAS G12D). The class given is biochemical. The settings on record: GST-KRAS G12D, HIS-SOS1cat, EDA-GTP-DY-647P1; compound 128 pM to 10 µM; read-out: SOS-catalyzed nucleotide exchange assay (IC50 range, Grade). In short, it runs like this: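 SOS1cat (HIS-tagged) preincubated 10 min at room temperature with compound (128 pM-10 µM), then GST-KRAS G12D with anti-GST terbium added; GTP loading tracked as HTRF with a DY-647P1 GTP analogue after 30 min, buffer HEPES pH 7.4. GEF-free wells for normalization; IC50 derived.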
Regarding `CC(=O)Nc1cccc(-n2nc(C(=O)N[C@H](C)c3cc(N)cc(C(F)(F)F)c3)ccc2=O)c1` [Example 35, (R)-1-(3-acetamidophenyl)-N-(1-(3-amino-5-(trifluoromethyl)phenyl)ethyl)-6-oxo-1,6-dihydropyridazine-3-carboxamide], the pIC50 was more than 6.00.
On to `C[C@@H](NC(=O)c1ccc(=O)n(-c2cccc(C(=O)N(C)C)c2)n1)c1cc(N)cc(C(F)(F)F)c1` [Example 31, (R)-N-(1-(3-amino-5-(trifluoromethyl)phenyl)ethyl)-1-(3-(dimethylcarbamoyl)phenyl)-6-oxo-1,6-dihydropyridazine-3-carboxamide], for which the pIC50 was more than 6.00.
Take `C[C@@H](NC(=O)c1ccc(=O)n(-c2cccc(C(=O)N(C)C)c2)n1)c1cccc(C(F)(F)CO)c1F` [Example 43, N-[(1R)-1-[3-(1,1-difluoro-2-hydroxy-ethyl)-2-fluorophenyl]ethyl]-1-[3-(dimethylcarbamoyl)phenyl]-6-oxo-pyridazine-3-carboxamide]: the pIC50 is more than 6.00.
For the compound `C[C@@H](NC(=O)c1ccc(=O)n(-c2ccccn2)n1)c1cc(N)cc(C(F)(F)F)c1` [Example 20, N-[(1R)-1-[3-amino-5-(trifluoromethyl)phenyl]ethyl]-6-oxo-1-(2-pyridyl)pyridazine-3-carboxamide], the pIC50 is more than 6.00.
`C[C@@H](NC(=O)c1ccc(=O)n(-c2cc(F)ccc2F)c1)c1cc(N)cc(C(F)(F)F)c1` [Example 96, N-[(1R)-1-[3-amino-5-(trifluoromethyl)phenyl]ethyl]-1-(2,5-difluorophenyl)-6-oxo-1,6-dihydropyridine-3-carboxamide]: the pIC50 was more than 6.00.
Then `COC1CC=C(n2nc(C(=O)N[C@H](C)c3cc(N)cc(C(F)(F)F)c3)ccc2=O)CC1` (stereo partly drawn) [Example 127, N-[(1R)-1-[3-amino-5-(trifluoromethyl)phenyl]ethyl]-1-(4-methoxycyclohex-1-en-1-yl)-6-oxo-1,6-dihydropyridazine-3-carboxamide], with 5.00 to 6.00.
On to `C[C@@H](NC(=O)c1ccc(=O)n(-c2cccc(NS(C)(=O)=O)c2)n1)c1cccc(C(F)(F)CO)c1` [Example 39, (R)-N-(1-(3-(1,1-difluoro-2-hydroxyethyl)phenyl)ethyl)-1-(3-(methylsulfonamido)phenyl)-6-oxo-1,6-dihydropyridazine-3-carboxamide], for which the pIC50 is more than 6.00.
Then `C[C@@H](NC(=O)c1ccc(=O)n(-c2ccccc2)n1)c1cccc(C(F)(F)CO)c1` [Example 57, N-[(1R)-1-[3-(1,1-difluoro-2-hydroxy-ethyl)phenyl]ethyl]-6-oxo-1-phenyl-pyridazine-3-carboxamide], with more than 6.00; and “(R)-1-([1,1'-biphenyl]-4-yl)-N-(1-(3-amino-5-(trifluoromethyl)phenyl)ethyl)-6-oxo-1,6-dihydropyridazine-3-carboxamide [Example 24]”, with 5.00 to 6.00.
Consider `Cc1ccc(-n2nc(C(=O)N[C@H](C)c3cc(N)cc(C(F)(F)F)c3)ccc2=O)s1` [Example 22, N-[(1R)-1-[3-amino-5-(trifluoromethyl)phenyl]ethyl]-1-(5-methyl-2-thienyl)-6-oxo-pyridazine-3-carboxamide], for which the pIC50 is more than 6.00.
Regarding `C[C@@H](NC(=O)c1ccc(=O)n(-c2ccccc2)n1)c1cccc2ccccc12` [Example 9, N-[(1R)-1-(1-naphthyl)ethyl]-6-oxo-1-phenyl-pyridazine-3-carboxamide], the pIC50 was 5.00 to 6.00.
For `C[C@@H](NC(=O)c1ccc(=O)n(-c2cccc(C(=O)N3CCOCC3)c2)c1)c1cc(N)cc(C(F)(F)F)c1` [Example 75, N-[(1R)-1-[3-amino-5-(trifluoromethyl)phenyl]ethyl]-1-[3-(morpholine-4-carbonyl)phenyl]-6-oxo-1,6-dihydropyridine-3-carboxamide], the pIC50 was more than 6.00.
Then `C[C@@H](NC(=O)c1ccc(=O)n(-c2ccccc2)n1)c1ccc(Br)cc1` [Example 6, (R)-N-(1-(4-bromophenyl)ethyl)-6-oxo-1-phenyl-1,6-dihydropyridazine-3-carboxamide], with less than 5.00; and `C[C@@H](NC(=O)c1ccc(=O)n(C2CC2)n1)c1cc(N)cc(C(F)(F)F)c1` [Example 64, N-[(1R)-1-[3-amino-5-(trifluoromethyl)phenyl]ethyl]-1-cyclopropyl-6-oxo-1,6-dihydropyridazine-3-carboxamide], with 5.00 to 6.00; and `CC(=O)N1CCC(n2nc(C(=O)N[C@H](C)c3cccc(Cl)c3)ccc2=O)CC1` [Example 18, 1-(1-acetyl-4-piperidyl)-N-[(1R)-1-(3-chlorophenyl)ethyl]-6-oxo-pyridazine-3-carboxamide], with 5.00 to 6.00.
Then `C[C@@H](NC(=O)c1ccc(=O)n([C@H]2CCCC[C@@H]2O)n1)c1cc(N)cc(C(F)(F)F)c1` [Example 125, N-((R)-1-(3-amino-5-(trifluoromethyl)phenyl)ethyl)-1-((1S,2S)-2-hydroxycyclohexyl)-6-oxo-1,6-dihydropyridazine-3-carboxamide], with 5.00 to 6.00; and `C[C@@H](NC(=O)c1cc(O)c(=O)n(-c2ccccc2)n1)c1cc(N)cc(C(F)(F)F)c1` [Example 48, (R)-N-(1-(3-amino-5-(trifluoromethyl)phenyl)ethyl)-5-hydroxy-6-oxo-1-phenyl-1,6-dihydropyridazine-3-carboxamide], with 5.00 to 6.00.
Then `C[C@@H](NC(=O)c1ccc(=O)n(C2=CCCCC2)n1)c1cc(N)cc(C(F)(F)F)c1` [Example 65, N-[(1R)-1-[3-amino-5-(trifluoromethyl)phenyl]ethyl]-1-(cyclohex-1-en-1-yl)-6-oxo-1,6-dihydropyridazine-3-carboxamide], with more than 6.00; and `C[C@@H](NC(=O)c1ccc(=O)n(-c2ccccc2)n1)c1cccc(Oc2ccccc2)c1` [Example 13, 6-oxo-N-[(1R)-1-(3-phenoxyphenyl)ethyl]-1-phenyl-pyridazine-3-carboxamide], with more than 6.00.
Take `CC1CC=C(n2nc(C(=O)N[C@H](C)c3cc(N)cc(C(F)(F)F)c3)ccc2=O)CC1` (stereo partly drawn) [Example 66, N-[(1R)-1-[3-amino-5-(trifluoromethyl)phenyl]ethyl]-1-(4-methylcyclohex-1-en-1-yl)-6-oxo-1,6-dihydropyridazine-3-carboxamide]: the pIC50 was 5.00 to 6.00.
Then `C[C@@H](NC(=O)c1ccc(=O)n(-c2ccccc2)c1)c1cc(N)cc(C(F)(F)F)c1` [Example 62, N-[(1R)-1-[3-amino-5-(trifluoromethyl)phenyl]ethyl]-6-oxo-1-phenylpyridine-3-carboxamide], with more than 6.00; and `C[C@@H](NC(=O)c1ccc(=O)n(-c2ccccc2)n1)c1cccc(C#N)c1` [Example 4, (R)-N-(1-(3-cyanophenyl)ethyl)-6-oxo-1-phenyl-1,6-dihydropyridazine-3-carboxamide], with 5.00 to 6.00; and `C[C@@H](NC(=O)c1ccc(=O)n(-c2ccccc2NS(C)(=O)=O)n1)c1cc(N)cc(C(F)(F)F)c1` [Example 33, N-[(1R)-1-[3-amino-5-(trifluoromethyl)phenyl]ethyl]-1-[2-(methanesulfonamido)phenyl]-6-oxo-pyridazine-3-carboxamide], with more than 6.00.
